Test results: patent EP0280167A2, “Use of lipophile anthracyclines for the secondary treatment of anthracycline-resistant tumors, composition containing a lipophile anthracycline and preparation thereof” (BEHRINGWERKE Aktiengesellschaft, priority 1987, dated 1988)
Where two headings read alike, the source gives them in different places.

Legend:
[1] = system: sensitive L1210 Leukämiezellen; assay: Adriamycin uptake in sensitive L1210 cells with and without a lipophilic anthracycline (HPLC/fluorescence); type: cell-based; conditions: for Adriamycinaufnahme (in % der unbehandelten Kontrolle ohne Zusatz) L1210: 1 h, 37°C, sensitive L1210
Protocol: (§1) Zur Bestimmung der Adriamycinaufnahme wurden sensitive oder resistente Zellen (2 x 10⁵/ml) in dem Zellkulturmedium RPMI 1640 für 1h bei 37°C mit Adriamycin in Gegenwart und Abwesenheit eines lipophilen Anthracyclins inkubiert. Die Zellsuspension (5 ml) wurde danach zentrifugiert (1 min, 2000 g), das Zellpellet zweimal mit kalter phosphat-gepufferter Kochsalzlösung gewaschen und anschließend durch Zugabe von 100 µl ^RTriton X-100, 800 µl DNAse (Sigma, FRG) und 100 µl internem Standard (Daunomycin, 1 µg/ml) lysiert. Adriamycin und interner Standard wurden mit Hilfe von mit C18-Alkylresten derivatisiertem Kieselgel gefüllten Säulen (Bondelut C18, Analytichem) angereichert.
(§2) Nach Aktivierung dieser Säulen mit Methanol und Waschen mit doppelt destilliertem Wasser wurden die Proben auf die Säulen gegeben. Anschließend wurde mit doppelt destilliertem Wasser gewaschen und das gebundene Material mit 2 ml Chloroform/Methanol (2:1; v:v) eluiert. Nach dem Abdampfen des Lösungsmittelgemisches unter einem Stickstoffstrom wurden die Rückstände in jeweils 100 µl eines Gemisches aus 3 Teilen Acetonitril und 7 Teilen 20 mmol/l wässriger Phosphorsäure, pH 3 ("mobile Phase") gelöst. Die Auftrennung der Probenbestandteile erfolgte mit Hilfe der Hochdruckflüssigkeitschromatographie (20 µl Probe) über eine mit Nucleosil C18 (Partikelgrüße 5 µm) gefüllte Säule (12.5 x 0.46 cm).
(§3) Zur Detektion wurde ein Fluoreszenzdetektor bei einer Exitations- bzw. Emissionswellenlänge von 495 bzw. 590 nm verwendet. Die quantitative Analyse von Adriamycin erfolgte mit Hilfe eines Integrators durch Bestimmung der Peakflächen unter Berücksichtigung der wiedergefundenen Menge an internem Standard und Vergleich mit Proben, die bekannte Mengen an Adriamycin enthielten.

[2] = system: resistente L1210 Leukämiezellen; assay: Adriamycin uptake in adriamycin-resistant L1210 cells with and without a lipophilic anthracycline (HPLC/fluorescence); type: cell-based; conditions: for Adriamycinaufnahme (in % der unbehandelten Kontrolle ohne Zusatz) resistente L1210: 1 h, 37°C, resistant L1210; for Adriamycin-Aufnahme in adriamycinresistente L1210-Leukämiezellen: result in words, no concentration given
Protocol: (§4) Die Züchtung von adriamycin-resistenten L1210 Zellen erfolgte durch regelmäßig wiederholte, einstündige Inkubation von sensitiven L1210 Zellen mit steigenden Konzentrationen an Adriamycin bis ein Resistenzgrad (IC₅₀ resistente L1210/IC₅₀ sensitive L1210) gegenüber Adriamycin von etwa 80 erreicht war.
as §1, §2, §3

physchem = type: physicochemical; conditions: for logD: octanol/tris buffer
Protocol: Bestimmung des Oktanol-Wasser-Verteilungskoeffizienten P
Zu 1 ml einer 2-10 µmol/l Lösung der Anthracycline in oktanol-gesättigtem Tris-Puffer, pH 7, wurde 1 ml puffer-gesättigtes Oktanol gegeben und für etwa 1 h bei Raumtemperatur geschüttelt. Die wässrige Phase wurde anschliessend entnommen und die Substanzkonzentration in einem Fluoreszenzphotometer durch Vergleich mit Proben bekannter Konzentration bestimmt. Die Konzentration in der organischen Phase wurde durch Subtraktion der in der wässrigen Phase gefundenen Konzentration von der gesamten eingesetzten Konzentration ermittelt. Der Verteilungskoeffizient wurde berechnet nach der Formel: [formula]

[3] = system: nicht resistente L1210 Leukämiezellen; assay: Proliferation test: cytotoxicity of Adriamycin on non-resistant L1210 cells with a lipophilic anthracycline present; type: cell-based; conditions: influence of the added lipophilic anthracycline; result in words
resistente L1210 Zellen = assay: Proliferation test: cytotoxicity on adriamycin-resistant L1210 cells; type: cell-based; conditions: resistant line grown by repeated 1 h incubation with rising Adriamycin concentrations
Source text: as §4

[4] = pH 7, octanol / Tris buffer pH 7, room temperature, * means greater than, read-out: P (converted)
[5] = pH 7, statement in text, room temperature (20°C) in b7, read-out: Oktanol-Wasser Verteilungskoeffizient P (converted)

CCCCCCN(C)[C@H]1C[C@H](O[C@H]2C[C@](O)(CC)[C@H](O)c3c(O)c4c(c(O)c32)C(=O)c2c(O)cccc2C4=O)O[C@@H](C)[C@H]1O [3'-N-Hexyl-3'-N-methyl-7-O-alpha-L-Daunosaminyl-ß-rhodomycinon]
Adriamycinaufnahme (in % der unbehandelten Kontrolle ohne Zusatz) L1210 ([1]; anthracycline 1 µg/ml): 97% | Adriamycinaufnahme (in % der unbehandelten Kontrolle ohne Zusatz) L1210 ([1]; anthracycline 10 µg/ml): 97% | Adriamycinaufnahme (in % der unbehandelten Kontrolle ohne Zusatz) resistente L1210 ([2]; anthracycline 1 µg/ml): 197% | Adriamycinaufnahme (in % der unbehandelten Kontrolle ohne Zusatz) resistente L1210 ([2]; anthracycline 10 µg/ml): 197%

CCCCCN(C)[C@H]1C[C@H](O[C@H]2C[C@](O)(CC)[C@H](O)c3c(O)c4c(c(O)c32)C(=O)c2c(O)cccc2C4=O)O[C@@H](C)[C@H]1O [3'-N-Pentyl-3'-N-methyl-7-O-alpha-L-Daunosaminyl-ß-rhodomycinon]
Adriamycinaufnahme (in % der unbehandelten Kontrolle ohne Zusatz) L1210 ([1]; anthracycline 1 µg/ml): 87% | Adriamycinaufnahme (in % der unbehandelten Kontrolle ohne Zusatz) L1210 ([1]; anthracycline 10 µg/ml): 95% | Adriamycinaufnahme (in % der unbehandelten Kontrolle ohne Zusatz) resistente L1210 ([2]; anthracycline 1 µg/ml): 166% | Adriamycinaufnahme (in % der unbehandelten Kontrolle ohne Zusatz) resistente L1210 ([2]; anthracycline 10 µg/ml): 209%

CC[C@@]1(O)C[C@H](O[C@H]2C[C@H](N(C)C)[C@H](O[C@H]3C[C@H](O)[C@H](O[C@H]4CCC(=O)[C@H](C)O4)[C@H](C)O3)[C@H](C)O2)c2c(cc3c(c2O)C(=O)c2c(O)cccc2C3=O)[C@H]1C(=O)OC [ACM, Aclacinomycin]
Adriamycin-Aufnahme in sensitive L1210 Zellen ([1]; result in words, no concentration given): nicht durch Aclacinomycin beeinflußt | logD (physchem; [4]): 2.28 | logD (physchem; [5]): ~2.3 | Adriamycin-Aufnahme in adriamycinresistente L1210-Leukämiezellen [2]: Erhöhung | zytotoxische Wirkung von Adriamycin auf nicht resistente L1210 Leukämiezellen [3]: nur schwach im Sinne einer additiven Wirkung beeinflußt

COc1cccc2c1C(=O)c1c(O)c3c(c(O)c1C2=O)C[C@@](O)(C(C)=O)C[C@@H]3O[C@H]1C[C@H](N)[C@H](O)[C@H](C)O1 [Daunomycin]
logD (physchem; [4]): 0.653 | logD (physchem; [5]): < 1

COc1cccc2c1C(=O)c1c(O)c3c(c(O)c1C2=O)C[C@@](O)(C(=O)CO)C[C@@H]3O[C@H]1C[C@H](N)[C@H](O)[C@H](C)O1 [Doxorubicin]
Resistenzgrad (IC₅₀ resistente L1210/IC₅₀ sensitive L1210) (resistente L1210 Zellen): ~80 | logD (physchem; [5]): < 1

COc1cccc2c1C(=O)c1c(O)c3c(c(O)c1C2=O)C[C@@](O)(C(=O)CO)C[C@@H]3O[C@H]1C[C@H](N)[C@@H](O)[C@H](C)O1 [Epirubicin]
logD (physchem; [5]): < 1

CC[C@@]1(O)C[C@H](O)c2c(O)c3c(c(O)c2[C@H]1C(=O)OC)C(=O)c1cccc(O)c1C3=O [epsilon-Rhodomycinon]
logD (physchem; [4]): > 3

CC[C@@]1(O)C[C@H](O)c2c(O)c3c(c(O)c2[C@H]1C(=O)OC)C(=O)c1c(O)ccc(O)c1C3=O [epsilon-iso-Rhodomycinon]
Adriamycinaufnahme (in % der unbehandelten Kontrolle ohne Zusatz) L1210 ([1]; anthracycline 1 µg/ml): 90% | Adriamycinaufnahme (in % der unbehandelten Kontrolle ohne Zusatz) L1210 ([1]; anthracycline 10 µg/ml): 87% | Oktanol-Wasser Verteilungskoeffizient P (physchem; room temperature (20°C) in b7): > 100 | Adriamycinaufnahme (in % der unbehandelten Kontrolle ohne Zusatz) resistente L1210 ([2]; anthracycline 1 µg/ml): 146% | Adriamycinaufnahme (in % der unbehandelten Kontrolle ohne Zusatz) resistente L1210 ([2]; anthracycline 10 µg/ml): 144% | Adriamycin-Aufnahme in adriamycinresistente L1210-Leukämiezellen [2]: vergleichbare

CC[C@@]1(O)CCc2c(O)c3c(c(O)c2[C@H]1O)C(=O)c1cccc(O)c1C3=O [gamma-Rhodomycinon]
Oktanol-Wasser Verteilungskoeffizient P (physchem; room temperature (20°C) in b7): > 100 | Adriamycin-Aufnahme in adriamycinresistente L1210-Leukämiezellen [2]: vergleichbare

CC[C@@]1(O)C[C@H](O)c2c(O)c3c(c(O)c2[C@H]1O)C(=O)c1cccc(O)c1C3=O [ß-Rhodomycinon]
Adriamycinaufnahme (in % der unbehandelten Kontrolle ohne Zusatz) L1210 ([1]; anthracycline 1 µg/ml): 96% | Adriamycinaufnahme (in % der unbehandelten Kontrolle ohne Zusatz) L1210 ([1]; anthracycline 10 µg/ml): 96% | Oktanol-Wasser Verteilungskoeffizient P (physchem; room temperature (20°C) in b7): > 100 | Adriamycinaufnahme (in % der unbehandelten Kontrolle ohne Zusatz) resistente L1210 ([2]; anthracycline 1 µg/ml): 116% | Adriamycinaufnahme (in % der unbehandelten Kontrolle ohne Zusatz) resistente L1210 ([2]; anthracycline 10 µg/ml): 186% | Adriamycin-Aufnahme in adriamycinresistente L1210-Leukämiezellen [2]: vergleichbare
